In US20260035365A1, “1H-PYRROLO[3,2-B]PYRIDINE DERIVATIVES AS IRREVERSIBLE INHIBITORS OF MUTANT EGFR FOR THE TREATMENT OF CANCER” (Bayer Aktiengesellschaft, priority 2022, published 2026):
pIC50: −log10 of the molar value.

What was measured:
BA/F3 (insSVD) cells = assay: Ba/F3 cell survival assay (Cell Titer-Glo), EGFR-insSVD; assay type: cell-based; details: without IL-3, with EGF
Experimental: 293T cells from ATCC were transfected with pBABEpuro expression constructs for WT EGFR or EGFR-insSVD, or EGFR-insSVD T790M, and pCL-Eco packaging vector using Fugene-6 transfection reagent from Promega. Plates were incubated at 37° C. for 48 h. Retrovirus was harvested by filtering the media supernatant through a 0.45 μm filter.
Ba/F3 cells purchased from DSMZ were grown in RPMI+10% FBS+10 ng/mL IL-3 and infected with filtered retroviral supernatant at a 1:2 dilution. Polybrene was added to a concentration of 8 μg/mL, plates were spun for 90 min, and incubated for 16 h at 37° C. 2 μg/mL puromycin was added to the infected cells 24 h after infection and cells were continually grown in the presence of puromycin and 10 ng/mL IL-3. Following stably expressing Ba/F3 cell lines were generated: Ba/F3-EGFR-WT, Ba/F3-EGFR-insSVD, Ba/F3-EGFR-insSVD T790M, (Ba/F3-vector-control).
For cell survival assays, Ba/F3 cells were grown to a density of 1-2 million cells per mL, spun down and resuspended in media without IL-3, and replated at a concentration of 200,000-500,000 cells per mL. The cells ectopically expressing WT EGFR, EGFR-insSVD, or EGFR-insSVD T790M were plated with 10 ng/mL Millipore Culture grade EGF. The cells ectopically expressing pBABEpuro empty vector were plated with 10 ng/mL IL-3.
2 days later, cells were plated in 50 μL in a 384 well plate at a concentration of 4000 cells per well for cells assayed in the absence of IL-3 and 2000 cells per well for cells assayed in the presence of IL-3. 100 nL of compound was added to each well using a 100 nL pin head, and plates were incubated at 37° C. for 48 h.
Cell viability was measured by adding 20 μL of Cell Titer-Glo Luminescent Cell Viability Reagent diluted 1:3 in PBS. Plates were sealed with Perkin Elmer Top-Seal, inverted several times to mix, and immediately centrifuged at 1000 rpm for 2 min. Plates were incubated in low light conditions for 8-10 min and luminescence was measured.

[1] = target: mutEGFR (D770_N771insSVD) (Homo sapiens, UniProt P00533, INS767SVD); assay: Exon20-mutant-EGFR (D770_N771insSVD) TR-FRET kinase assay; assay type: biochemical; details: 2 mM ATP, 15 min preincubation
Description: Inhibitory activity of compounds of the present invention against an Epidermal Growth Factor Receptor (EGFR) with an insertion of the amino acids sequence SVD between D770 and N771 (SEQ ID No. 5) was quantified employing the TR-FRET based kinase activity assay as described in the following paragraphs.
A recombinant fusion protein of N-terminal Glutathion-S-Transferase (GST) and a fragment of human EGFR variant (amino acids R669 to A1210 with insertion of the amino acids sequence SVD between D770 and N771 (SEQ ID No. 5) (“EGFR ins SVD”), expressed in Sf9 insect cells and purified via affinity chromatography using Glutathion Sepharose as described above, was used as a kinase. As substrate for the kinase reaction the biotinylated peptide biotin-Ahx-AEEEEYFELVAKKK (C-terminus in amide form) (SEQ ID No. 6) was used which can be purchased e.g. form the company Biosynthan GmbH (Berlin-Buch, Germany).
For the assay 50 nl of a 100-fold concentrated solution of the test compound in DMSO was pipetted into either a black low volume 384 well microtiter plate or a black 1536 well microtiter plate (both Greiner Bio-One, Frickenhausen, Germany), 2 μl of a solution of EGFR in aqueous assay buffer [50 mM Hepes pH 7.0, 10 mM MgCl2, 1 mM dithiothreitol, 0.5 mM EGTA, 0.3 mM activated sodium ortho-vanadate, 0.005% (w/v) bovine serum albumin, 0.005% (v/v) Tween-20] were added and the mixture was incubated for 15 min at 22° C. to allow pre binding of the test compounds to the enzyme before the start of the kinase reaction. […] The concentration of EGFR was adjusted depending of the activity of the enzyme lot and was chosen appropriate to have the assay in the linear range, typical concentration was 15 pg/μl. The reaction was stopped by the addition of 3 μl of a solution of HTRF detection reagents (83.3 nM streptavidine-XL665 [Cisbio Bioassays, Codolet, France] and 1.67 nM PT66-Tb-Cryptate, a terbium-cryptate labelled anti-phospho-tyrosine antibody from Cisbio Bioassays [instead of the PT66 Tb cryptate PT66 Eu Chelate from Perkin Elmer can also be used]) in an aqueous EDTA-solution (133.3 mM EDTA, 0.2% (w/v) bovine serum albumin in 50 mM HEPES pH 7.5).
The resulting mixture was incubated 1 h at 22° C. to allow the binding of the biotinylated phosphorylated peptide to the streptavidine-XL665 and the PT66-Tb-Cryptate. Subsequently, the amount of phosphorylated substrate was evaluated by measurement of the resonance energy transfer from the PT66-Tb-Cryptate to the streptavidine-XL665. Therefore, the fluorescence emissions at 620 nm and 665 nm after excitation at 337 nm were measured in a HTRF reader, e.g. a Pherastar (BMG Labtechnologies, Offenburg, Germany) or a Viewlux (Perkin-Elmer). The ratio of the emissions at 665 nm and at […] was taken as the measure for the amount of phosphorylated substrate. The data were normalised (enzyme reaction without inhibitor=0% inhibition, all other assay components but no enzyme=100% inhibition).

[2] = target: mutEGFR (D770_N771insNPG, T790); assay: mutEGFR (D770_N771insNPG, T790) kinase assay; assay type: biochemical, human
Sequence of mutEGFR (D770_N771insNPG, T790) (P00533 with tags, fused parts or gaps INS770NPG limits assumed): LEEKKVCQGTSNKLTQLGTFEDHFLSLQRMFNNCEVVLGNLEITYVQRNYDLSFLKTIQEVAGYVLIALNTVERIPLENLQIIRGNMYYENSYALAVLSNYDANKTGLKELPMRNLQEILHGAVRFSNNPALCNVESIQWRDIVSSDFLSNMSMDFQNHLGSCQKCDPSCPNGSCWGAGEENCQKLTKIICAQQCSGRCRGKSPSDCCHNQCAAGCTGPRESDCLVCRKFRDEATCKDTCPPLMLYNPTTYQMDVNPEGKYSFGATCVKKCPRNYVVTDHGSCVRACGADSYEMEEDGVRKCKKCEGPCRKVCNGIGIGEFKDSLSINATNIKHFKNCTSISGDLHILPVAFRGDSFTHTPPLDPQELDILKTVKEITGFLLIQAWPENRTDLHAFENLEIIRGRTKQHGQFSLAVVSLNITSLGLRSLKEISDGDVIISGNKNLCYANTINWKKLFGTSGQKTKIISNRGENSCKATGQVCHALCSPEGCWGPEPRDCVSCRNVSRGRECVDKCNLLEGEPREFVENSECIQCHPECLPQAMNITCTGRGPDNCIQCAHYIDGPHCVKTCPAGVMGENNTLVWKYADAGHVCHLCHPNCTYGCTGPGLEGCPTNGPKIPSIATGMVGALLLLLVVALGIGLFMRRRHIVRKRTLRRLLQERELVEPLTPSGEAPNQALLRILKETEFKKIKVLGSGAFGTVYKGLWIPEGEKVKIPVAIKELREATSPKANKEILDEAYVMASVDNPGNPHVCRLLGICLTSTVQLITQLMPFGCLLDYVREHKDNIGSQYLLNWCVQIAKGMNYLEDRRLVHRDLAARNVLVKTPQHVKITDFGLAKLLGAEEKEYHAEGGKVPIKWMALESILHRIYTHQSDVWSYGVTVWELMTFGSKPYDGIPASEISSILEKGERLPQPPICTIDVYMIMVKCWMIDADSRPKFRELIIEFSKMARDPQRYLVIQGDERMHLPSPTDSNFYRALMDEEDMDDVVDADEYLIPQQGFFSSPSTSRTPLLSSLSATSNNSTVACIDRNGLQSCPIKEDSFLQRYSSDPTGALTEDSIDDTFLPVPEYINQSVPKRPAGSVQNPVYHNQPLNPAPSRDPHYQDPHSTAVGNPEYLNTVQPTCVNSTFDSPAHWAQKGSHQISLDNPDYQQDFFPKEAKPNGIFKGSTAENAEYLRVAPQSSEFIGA

Sequence of mutEGFR (D770_N771insSVD) (P00533 with tags, fused parts or gaps INS767SVD limits assumed): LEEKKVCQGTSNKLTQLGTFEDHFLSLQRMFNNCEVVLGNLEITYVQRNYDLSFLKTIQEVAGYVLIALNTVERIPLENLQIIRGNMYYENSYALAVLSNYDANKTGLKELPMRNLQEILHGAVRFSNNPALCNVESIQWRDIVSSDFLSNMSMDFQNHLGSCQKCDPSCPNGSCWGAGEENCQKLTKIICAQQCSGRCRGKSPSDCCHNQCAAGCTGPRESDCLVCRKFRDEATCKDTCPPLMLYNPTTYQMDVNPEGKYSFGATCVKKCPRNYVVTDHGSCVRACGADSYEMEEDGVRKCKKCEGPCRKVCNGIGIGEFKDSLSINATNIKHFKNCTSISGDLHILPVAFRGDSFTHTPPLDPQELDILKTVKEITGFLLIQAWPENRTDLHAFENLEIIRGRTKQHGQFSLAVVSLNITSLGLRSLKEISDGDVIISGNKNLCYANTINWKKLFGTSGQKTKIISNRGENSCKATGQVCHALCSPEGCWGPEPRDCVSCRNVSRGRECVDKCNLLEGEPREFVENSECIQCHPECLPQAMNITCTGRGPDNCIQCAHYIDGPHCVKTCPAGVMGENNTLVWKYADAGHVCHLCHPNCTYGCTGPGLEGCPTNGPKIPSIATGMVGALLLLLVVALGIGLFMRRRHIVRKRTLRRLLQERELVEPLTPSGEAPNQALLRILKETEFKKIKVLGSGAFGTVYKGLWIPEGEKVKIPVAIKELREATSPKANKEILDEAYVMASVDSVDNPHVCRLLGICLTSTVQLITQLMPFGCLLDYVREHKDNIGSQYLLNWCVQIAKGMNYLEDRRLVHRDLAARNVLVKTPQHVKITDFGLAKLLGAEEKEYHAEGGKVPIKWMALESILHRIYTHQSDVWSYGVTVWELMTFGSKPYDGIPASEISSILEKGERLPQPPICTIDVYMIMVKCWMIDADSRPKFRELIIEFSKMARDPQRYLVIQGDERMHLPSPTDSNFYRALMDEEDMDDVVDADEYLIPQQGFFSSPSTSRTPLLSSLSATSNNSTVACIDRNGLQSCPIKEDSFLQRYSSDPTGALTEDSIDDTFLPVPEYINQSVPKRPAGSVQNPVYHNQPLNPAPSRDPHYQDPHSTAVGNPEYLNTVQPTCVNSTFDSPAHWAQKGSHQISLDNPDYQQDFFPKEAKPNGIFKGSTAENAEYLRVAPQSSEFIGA

SMILES | pIC50 (BA/F3 (insSVD) cells; Mus musculus, BaF3, 48 h) | pIC50 [1] | pIC50 [2] | pIC50 (BA/F3 (insSVD) cells; 48 h)
C=CC(=O)N1CCC(Oc2cnccc2-c2[nH]c3cccnc3c2-c2ccccc2)C1 (racemic) [Example 116, 1-[(3RS)-3-{[4-(3-phenyl-1H-pyrrolo[3,2-b]pyridin-2-yl)pyridin-3-yl]oxy}pyrrolidin-1-yl]prop-2-en-1-one] | 5.82 | 7.28 | 6.67 | –
C#CC(=O)N1CCC(Oc2cnccc2-c2[nH]c3cccnc3c2-c2ccccc2)C1 (racemic) [Example 117, 1-[(3RS)-3-{[4-(3-phenyl-1H-pyrrolo[3,2-b]pyridin-2-yl)pyridin-3-yl]oxy}pyrrolidin-1-yl]prop-2-yn-1-one] | 5.35 | 7.04 | 6.53 | –
C=CS(=O)(=O)N1CCC(Oc2cnccc2-c2[nH]c3cccnc3c2-c2ccccc2)C1 (racemic) [Example 118, 2-(3-{[(3RS)-1-(ethenesulfonyl)pyrrolidin-3-yl]oxy}pyridin-4-yl)-3-phenyl-1H-pyrrolo[3,2-b]pyridine] | 6.14 | 7.77 | 7.10 | –
C=CC(=O)N1CCC(Oc2cnccc2-c2[nH]c3cccnc3c2-c2cccc(Cl)c2)C1 (racemic) [Example 119, 1-[(3RS)-3-({4-[3-(3-chlorophenyl)-1H-pyrrolo[3,2-b]pyridin-2-yl]pyridin-3-yl}oxy)pyrrolidin-1-yl]prop-2-en-1-one] | 6.26 | 7.85 | 7.24 | –
C#CC(=O)N1CCC(Oc2cnccc2-c2[nH]c3cccnc3c2-c2cccc(Cl)c2)C1 (racemic) [Example 120, 1-[(3RS)-3-({4-[3-(3-chlorophenyl)-1H-pyrrolo[3,2-b]pyridin-2-yl]pyridin-3-yl}oxy)pyrrolidin-1-yl]prop-2-yn-1-one] | 5.92 | 7.41 | 7.01 | –
C=CS(=O)(=O)N1CCC(Oc2cnccc2-c2[nH]c3cccnc3c2-c2cccc(Cl)c2)C1 (racemic) [Example 121, 3-(3-chlorophenyl)-2-(3-{[(3RS)-1-(ethenesulfonyl)pyrrolidin-3-yl]oxy}pyridin-4-yl)-1H-pyrrolo[3,2-b]pyridine] | 6.30 | 8.16 | 7.74 | –
C=CC(=O)N1CCC(Oc2cnccc2-c2[nH]c3cccnc3c2-c2cccc(C(F)(F)F)c2)C1 (racemic) [Example 122, 1-{(3RS)-3-[(4-{3-[3-(trifluoromethyl)phenyl]-1H-pyrrolo[3,2-b]pyridin-2-yl}pyridin-3-yl)oxy]pyrrolidin-1-yl}prop-2-en-1-one] | 5.59 | 6.91 | 6.11 | –
C#CC(=O)N1CCC(Oc2cnccc2-c2[nH]c3cccnc3c2-c2cccc(C(F)(F)F)c2)C1 (racemic) [Example 123, 1-{(3RS)-3-[(4-{3-[3-(trifluoromethyl)phenyl]-1H-pyrrolo[3,2-b]pyridin-2-yl}pyridin-3-yl)oxy]pyrrolidin-1-yl}prop-2-yn-1-one] | 6.08 | 6.76 | 6.15 | –
C=CC(=O)N1CCC(Oc2cnccc2-c2[nH]c3cccnc3c2-c2cc(C)ccc2F)C1 (racemic) [Example 124, 1-[(3RS)-3-({4-[3-(2-fluoro-5-methylphenyl)-1H-pyrrolo[3,2-b]pyridin-2-yl]pyridin-3-yl}oxy)pyrrolidin-1-yl]prop-2-en-1-one] | 6.04 | 7.58 | 6.92 | –
C#CC(=O)N1CCC(Oc2cnccc2-c2[nH]c3cccnc3c2-c2cc(C)ccc2F)C1 (racemic) [Example 125, 1-[(3RS)-3-({4-[3-(2-fluoro-5-methylphenyl)-1H-pyrrolo[3,2-b]pyridin-2-yl]pyridin-3-yl}oxy)pyrrolidin-1-yl]prop-2-yn-1-one] | 5.99 | 7.09 | 6.66 | –
C=CS(=O)(=O)N1CCC(Oc2cnccc2-c2[nH]c3cccnc3c2-c2cc(C)ccc2F)C1 (racemic) [Example 126, 2-(3-{[(3RS)-1-(ethenesulfonyl)pyrrolidin-3-yl]oxy}pyridin-4-yl)-3-(2-fluoro-5-methylphenyl)-1H-pyrrolo[3,2-b]pyridine] | 6.09 | 7.86 | 7.40 | –
C=CC(=O)N1CCC(Oc2cnccc2-c2[nH]c3cccnc3c2-c2cc(Cl)ccc2F)C1 (racemic) [Example 127, 1-[(3RS)-3-({4-[3-(5-chloro-2-fluorophenyl)-1H-pyrrolo[3,2-b]pyridin-2-yl]pyridin-3-yl}oxy)pyrrolidin-1-yl]prop-2-en-1-one] | 6.16 | 7.60 | 7.01 | –
C=CC(=O)N1CCC1(C)COc1cnccc1-c1[nH]c2cccnc2c1-c1ccccc1 (racemic) [Example 145, 1-[(2RS)-2-methyl-2-({[4-(3-phenyl-1H-pyrrolo[3,2-b]pyridin-2-yl)pyridin-3-yl]oxy}methyl)azetidin-1-yl]prop-2-en-1-one] | 5.00 | 5.45 | 4.76 | –
C=CS(=O)(=O)N1CCC1(C)COc1cnccc1-c1[nH]c2cccnc2c1-c1cccc(C(F)(F)F)c1 (racemic) [Example 148, 2-(3-{[(2RS)-1-(ethenesulfonyl)-2-methylazetidin-2-yl]methoxy}pyridin-4-yl)-3-[3-(trifluoromethyl)phenyl]-1H-pyrrolo[3,2-b]pyridine] | 5.56 | 6.98 | 6.20 | –
C=CC(=O)N1C[C@@H](N(C)CCN(C)C)C[C@H]1COc1cnccc1-c1[nH]c2cccnc2c1-c1ccccc1 (single isomer, unassigned) [Example 131] | – | 8.93 | 8.45 | 7.26
C=CC(=O)N1C[C@@H](N(C)CCN(C)C)C[C@H]1COc1cnccc1-c1[nH]c2cccnc2c1-c1ccccc1 (single isomer, unassigned) [Example 132] | – | 8.03 | 7.56 | 6.74
C=CC(=O)N1CC[C@H]1COc1cnccc1-c1[nH]c2cccnc2c1-c1ccccc1 (single isomer, unassigned) [Example 139] | 5.60 | 6.92 | 6.31 | –
C=CC(=O)N1CC[C@@H]1COc1cnccc1-c1[nH]c2cccnc2c1-c1ccccc1 (single isomer, unassigned) [Example 140] | 8.01 | 9.52 | 8.88 | –
C=CC(=O)N1CCCC[C@H]1COc1cnccc1-c1[nH]c2cccnc2c1-c1ccccc1 [Example 130, 1-[(2S)-2-({[4-(3-phenyl-1H-pyrrolo[3,2-b]pyridin-2-yl)pyridin-3-yl]oxy}methyl)piperidin-1-yl]prop-2-en-1-one] | 5.79 | 6.47 | – | –
